Results reported in patent US12077503B2, “Substituted cyclic amides and their use as herbicides” (FMC CORPORATION, priority 2015, dated 2024).

Legend:
Type in all cases: in vivo
[1] = tested on: barnyardgrass (Echinochloa crus-galli); assay: Test A preemergence; settings: Echinochloa crus-galli, pre-emergence, 240 h; for pest or weed control at 125 g/ha: 125 g ai/ha, Preemergence, visual injury rating after approximately 10 d, read-out: Barnyardgrass plant response rating (0 to 100 scale, 0 is no effect, 100 is complete control); for pest or weed control at 500 g/ha: 500 g ai/ha, preemergence, visual injury rating about 10 d after treatment, 0 to 100 scale (0 no effect, 100 complete control), read-out: Barnyardgrass plant response rating
How it was run: (§1)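 Ratings of 0 (no effect) to 100 (complete control) come from visual comparison with untreated controls roughly 10 d after treatment. Test chemicals, formulated in a non-phytotoxic solvent mixture with surfactant, were applied either as a preemergence directed soil spray on seeded soil or postemergence to one- to two-leaf plants 2 to 10 cm tall.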

[2] = tested on: ryegrass, Italian (Italian ryegrass, Lolium multiflorum); assay: Test A preemergence; settings: Lolium multiflorum, pre-emergence, 240 h; for pest or weed control at 125 g/ha: 125 g ai/ha, Preemergence, visual injury rating after approximately 10 d, read-out: Ryegrass, Italian plant response rating (0 to 100 scale, 0 is no effect, 100 is complete control); for pest or weed control at 500 g/ha: 500 g ai/ha, preemergence, visual injury rating about 10 d after treatment, 0 to 100 scale (0 no effect, 100 complete control), read-out: Ryegrass, Italian plant response rating
How it was run: as §1

[3] = tested on: pigweed (Amaranthus retroflexus); assay: Test A preemergence; settings: Amaranthus retroflexus, pre-emergence, 240 h; for pest or weed control at 125 g/ha: 125 g ai/ha, Preemergence, visual injury rating after approximately 10 d, read-out: Pigweed plant response rating (0 to 100 scale, 0 is no effect, 100 is complete control); for pest or weed control at 500 g/ha: 500 g ai/ha, preemergence, visual injury rating about 10 d after treatment, 0 to 100 scale (0 no effect, 100 complete control), read-out: Pigweed plant response rating
[4] = tested on: giant foxtail (Setaria faberii); assay: Test A preemergence; settings: Setaria faberi, pre-emergence, 240 h; for pest or weed control at 125 g/ha: 125 g ai/ha, Preemergence, visual injury rating after approximately 10 d, read-out: Foxtail, Giant plant response rating (0 to 100 scale, 0 is no effect, 100 is complete control); for pest or weed control at 500 g/ha: 500 g ai/ha, preemergence, visual injury rating about 10 d after treatment, 0 to 100 scale (0 no effect, 100 complete control), read-out: Foxtail, Giant plant response rating
How it was run: as §1

[5] = tested on: ragweed (common ragweed, Ambrosia elatior); assay: Test A preemergence; settings: Ambrosia artemisiifolia, pre-emergence, 240 h; for pest or weed control at 125 g/ha: 125 g ai/ha, Preemergence, visual injury rating after approximately 10 d, read-out: Ragweed plant response rating (0 to 100 scale, 0 is no effect, 100 is complete control); for pest or weed control at 500 g/ha: 500 g ai/ha, preemergence, visual injury rating about 10 d after treatment, 0 to 100 scale (0 no effect, 100 complete control), read-out: Ragweed plant response rating
How it was run: as §1

Kochia (Kochia scoparia) [6] = assay: Test A preemergence; settings: Bassia scoparia, pre-emergence, 240 h; for pest or weed control at 125 g/ha: 125 g ai/ha, Preemergence, visual injury rating after approximately 10 d, read-out: Kochia plant response rating (0 to 100 scale, 0 is no effect, 100 is complete control); for pest or weed control at 500 g/ha: 500 g ai/ha, preemergence, visual injury rating about 10 d after treatment, 0 to 100 scale (0 no effect, 100 complete control), read-out: Kochia plant response rating
How it was run: as §1

[7] = tested on: barnyardgrass (Echinochloa crus-galli); assay: Test B flooded paddy test; settings: Echinochloa crus-galli, Flood, 250 g ai/ha; scale of 0 to 100 where 0 is no effect and 100 is complete control; read-out: Barnyardgrass plant response rating
How it was run: (§2)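 Compound goes directly into floodwater once pots are flooded 3 cm above soil, targeting plants at two leaves; the water depth is then held for the test duration. Plants sit 13–15 d in a greenhouse and are rated visually, 100 denoting complete control.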

[8] = tested on: sedge, umbrella (small-flower umbrella sedge, Cyperus difformis); assay: Test B flooded paddy test; settings: Cyperus difformis, Flood, 250 g ai/ha; scale of 0 to 100 where 0 is no effect and 100 is complete control; read-out: Sedge, Umbrella plant response rating
How it was run: as §2

[9] = tested on: ducksalad (Heteranthera limosa); assay: Test B flooded paddy test; settings: Heteranthera limosa, Flood, 250 g ai/ha; scale of 0 to 100 where 0 is no effect and 100 is complete control; read-out: Ducksalad plant response rating
How it was run: as §2

rice (Oryra sativa) = assay: Test B flooded paddy test; settings: Oryza sativa, Flood, 250 g ai/ha; scale of 0 to 100 where 0 is no effect and 100 is complete control; read-out: Rice plant response rating
How it was run: as §2

[10] = tested on: Galium (catchweed bedstraw, Galium aparine); assay: Test A postemergence; settings: Galium, post-emergence, 240 h, 125 g ai/ha, Postemergence; visual injury after approximately 10 d; 0 to 100 scale where 0 is no effect and 100 is complete control; read-out: Plant response rating, Galium
How it was run: as §1

[11] = tested on: barnyardgrass (Echinochloa crus-galli); assay: Test A postemergence; settings: Echinochloa crus-galli, post-emergence, 240 h, 125 g ai/ha, Postemergence; visual injury after approximately 10 d; 0 to 100 scale where 0 is no effect and 100 is complete control; read-out: Plant response rating, Barnyardgrass
How it was run: as §1

[12] = tested on: ryegrass, Italian (Italian ryegrass, Lolium multiflorum); assay: Test A postemergence; settings: Lolium multiflorum, post-emergence, 240 h, 125 g ai/ha, Postemergence; visual injury after approximately 10 d; 0 to 100 scale where 0 is no effect and 100 is complete control; read-out: Plant response rating, Ryegrass, Italian
How it was run: as §1

[13] = tested on: pigweed (Amaranthus retroflexus); assay: Test A postemergence; settings: Amaranthus retroflexus, post-emergence, 240 h, 125 g ai/ha, Postemergence; visual injury after approximately 10 d; 0 to 100 scale where 0 is no effect and 100 is complete control; read-out: Plant response rating, Pigweed
How it was run: as §1

[14] = tested on: giant foxtail (Setaria faberii); assay: Test A postemergence; settings: Setaria faberi, post-emergence, 240 h, 125 g ai/ha, Postemergence; visual injury after approximately 10 d; 0 to 100 scale where 0 is no effect and 100 is complete control; read-out: Plant response rating, Foxtail, Giant
How it was run: as §1

[15] = tested on: ragweed (common ragweed, Ambrosia elatior); assay: Test A postemergence; settings: Ambrosia artemisiifolia, post-emergence, 240 h, 125 g ai/ha, Postemergence; visual injury after approximately 10 d; 0 to 100 scale where 0 is no effect and 100 is complete control; read-out: Plant response rating, Ragweed
How it was run: as §1

corn (Zea mays) = assay: Test A postemergence; settings: Zea mays, post-emergence, 240 h, 125 g ai/ha, Postemergence; visual injury after approximately 10 d; 0 to 100 scale where 0 is no effect and 100 is complete control
How it was run: as §1

[16] = tested on: wheat (Triticum aestivum); assay: Test A postemergence; settings: Triticum aestivum, post-emergence, 240 h, 125 g ai/ha, Postemergence; visual injury after approximately 10 d; 0 to 100 scale where 0 is no effect and 100 is complete control; read-out: Plant response rating, Wheat
How it was run: as §1

[17] = tested on: blackgrass (Alopecurus myosuroides); assay: Test A postemergence; settings: Alopecurus myosuroides, post-emergence, 240 h, 125 g ai/ha, Postemergence; visual injury after approximately 10 d; 0 to 100 scale where 0 is no effect and 100 is complete control; read-out: Plant response rating, Blackgrass
How it was run: as §1

Kochia (Kochia scoparia) [18] = assay: Test A postemergence; settings: Bassia scoparia, post-emergence, 240 h, 125 g ai/ha, Postemergence; visual injury after approximately 10 d; 0 to 100 scale where 0 is no effect and 100 is complete control; read-out: Plant response rating, Kochia
How it was run: as §1

Row | Structure (SMILES) | pest or weed control at 125 g/ha [1] | pest or weed control at 500 g/ha [1] | pest or weed control at 125 g/ha [2] | pest or weed control at 500 g/ha [2] | pest or weed control at 125 g/ha [3] | pest or weed control at 500 g/ha [3] | pest or weed control at 125 g/ha [4] | pest or weed control at 500 g/ha [4] | pest or weed control at 125 g/ha [5] | pest or weed control at 500 g/ha [5] | pest or weed control at 125 g/ha (Kochia (Kochia scoparia) [6]) | pest or weed control at 500 g/ha (Kochia (Kochia scoparia) [6]) | pest or weed control at 250 g/ha [7] | pest or weed control at 250 g/ha [8] | pest or weed control at 250 g/ha [9] | pest or weed control at 250 g/ha (rice (Oryra sativa)) | pest or weed control at 125 g/ha [10] | pest or weed control at 125 g/ha [11] | pest or weed control at 125 g/ha [12] | pest or weed control at 125 g/ha [13] | other results
1 | O=C1NC[C@H](c2cc(C(F)(F)F)cs2)[C@H]1C(=O)Nc1cccc(F)c1F [Compound 961] | 90% | 90% | 30% | 80% | 0% | 30% | 70% | 90% | 60% | 90% | 70% | 90% | 40% | 0% | 100% | 20% | 30% | 90% | 20% | 0% | pest or weed control at 125 g/ha [14]: 30%; pest or weed control at 125 g/ha [15]: 20%; Corn plant response rating (crop injury, 0 = no effect, 100 = complete kill) at 125 g/ha (corn (Zea mays)): 20%; plant injury at 125 g/ha [16]: 0%; pest or weed control at 125 g/ha [17]: 30%; pest or weed control at 125 g/ha (Kochia (Kochia scoparia) [18]): 50%
2 | CCOc1cccc([C@H]2CN(C)C(=O)[C@@H]2C(=O)Nc2ccc(F)cc2F)c1 [Compound 963] | 90% | 100% | 20% | 40% | 0% | 30% | 100% | 100% | 0% | 0% | 40% | 70% | 65% | 0% | 90% | 0% | 30% | 90% | 20% | 0% | pest or weed control at 125 g/ha [14]: 90%; pest or weed control at 125 g/ha [15]: 0%; Corn plant response rating (crop injury, 0 = no effect, 100 = complete kill) at 125 g/ha (corn (Zea mays)): 0%; plant injury at 125 g/ha [16]: 0%; pest or weed control at 125 g/ha [17]: 0%; pest or weed control at 125 g/ha (Kochia (Kochia scoparia) [18]): 20%
3 | CC(C)COc1cccc([C@H]2CNC(=O)[C@@H]2C(=O)Nc2ccccc2F)c1 [Compound 964] | 90% | 90% | 0% | 30% | 0% | 0% | 90% | 90% | 0% | 0% | 0% | 20% | 0% | 0% | 75% | 15% | 40% | 60% | 0% | 0% | pest or weed control at 125 g/ha [14]: 60%; pest or weed control at 125 g/ha [15]: 0%; Corn plant response rating (crop injury, 0 = no effect, 100 = complete kill) at 125 g/ha (corn (Zea mays)): 0%; plant injury at 125 g/ha [16]: 0%; pest or weed control at 125 g/ha [17]: 0%; pest or weed control at 125 g/ha (Kochia (Kochia scoparia) [18]): 0%
4 | Cc1ccc(NC(=O)[C@H]2C(=O)N(C)C[C@@H]2c2cc(F)cc(F)c2)cc1 [Compound 967] | 80% | 90% | 0% | 0% | 0% | 0% | 80% | 90% | 0% | 0% | 0% | 0% | 0% | 0% | 35% | 0% | 0% | 80% | 0% | 0% | pest or weed control at 125 g/ha [14]: 80%; pest or weed control at 125 g/ha [15]: 0%; Corn plant response rating (crop injury, 0 = no effect, 100 = complete kill) at 125 g/ha (corn (Zea mays)): 0%; plant injury at 125 g/ha [16]: 0%; pest or weed control at 125 g/ha [17]: 0%; pest or weed control at 125 g/ha (Kochia (Kochia scoparia) [18]): 0%
